# Laboratory results published in paper PMC7872314, “Modeling Bioavailable Concentrations in Zebrafish Cell Lines and Embryos Increases the Correlation of Toxicity Potencies across Test Systems” (Environmental Science & Technology, 2020).
# Like-named read-outs stand apart in the source and are kept apart here.
# How the values were obtained:
# [1] = test system: ZF4 (fibroblasts) cell line; assay: CFDA endpoint of AB/CFDA/NR multiplex, membrane stability; assay type: cell-based, zebrafish (Danio rerio); conditions: Danio rerio, Fibroblast
# [2] = test system: diverse mammalian cell assay results; set-up: method as in https://comptox.epa.gov/dashboard/; conditions: COMPTOX; ref https://comptox.epa.gov/dashboard/; read-out: median AC50; cited from earlier work
# [3] = test system: ZFL (hepatocytes) cell line; assay: cells; assay type: cell-based, zebrafish (Danio rerio); conditions: Danio rerio, Hepatocyte
# ZF4 and ZFL cell lines = assay: Cytotoxicity assays, all endpoints, both cell lines (mean/range); assay type: cell-based, zebrafish (Danio rerio); conditions: 48 h
# [4] = test system: ZF4 (fibroblasts) cell line; assay: MTS assay (MTS/BCA multiplex), NAD(P)H metabolism; assay type: cell-based, zebrafish (Danio rerio); conditions: Danio rerio, Fibroblast
# [5] = test system: ZF4 (fibroblasts) cell line; assay: BCA assay (MTS/BCA multiplex), protein amount; assay type: cell-based, zebrafish (Danio rerio); conditions: Danio rerio, Fibroblast
# [6] = test system: ZFL (hepatocytes) cell line; assay: cells; assay type: cell-based, zebrafish (Danio rerio); conditions: Danio rerio, Hepatocyte; remark: listed apart in the source
# [7] = test system: ZF4 (fibroblasts) cell line; assay: alamarBlue (AB) endpoint of AB/CFDA/NR multiplex, cellular respiration; assay type: cell-based, zebrafish (Danio rerio); conditions: Danio rerio, Fibroblast
# [8] = test system: ZFL (hepatocytes) cell line; assay: cells; assay type: cell-based, zebrafish (Danio rerio); conditions: Danio rerio, Hepatocyte; remark: listed apart in the source
# [9] = test system: ZFL (hepatocytes) cell line; assay: cells; assay type: cell-based, zebrafish (Danio rerio); conditions: Danio rerio, Hepatocyte; remark: listed apart in the source
# [10] = test system: ZF4 (fibroblasts) cell line; assay: ATP assay (ATP/LDH multiplex), ATP metabolism; assay type: cell-based, zebrafish (Danio rerio); conditions: Danio rerio, Fibroblast
# [11] = test system: ZF4 (fibroblasts) cell line; assay: Neutral red, fluorescence (NRf), AB/CFDA/NR multiplex, lysosome stability; assay type: cell-based, zebrafish (Danio rerio); conditions: Danio rerio, Fibroblast
# [12] = ref Comptox, PubChem or DrugBank; cited from earlier work
# zebrafish embryos [13] = assay: animal or person; assay type: in vivo, zebrafish (Danio rerio); conditions: for EC50: Danio rerio
# [14] = test system: ZFL (hepatocytes) cell line; assay: cells; assay type: cell-based, zebrafish (Danio rerio); conditions: Danio rerio, Hepatocyte; remark: listed apart in the source
# zebrafish embryos [15] = test system: zebrafish embryos; set-up: method as in earlier work; conditions: nominal, cited from earlier work
# [16] = test system: ZFL (hepatocytes) cell line; assay: cells; assay type: cell-based, zebrafish (Danio rerio); conditions: Danio rerio, Hepatocyte; remark: listed apart in the source
# [17] = test system: ZF4 (fibroblasts) cell line; assay: Neutral red, absorbance (NRa), AB/CFDA/NR multiplex, lysosome stability; assay type: cell-based, zebrafish (Danio rerio); conditions: Danio rerio, Fibroblast
# [18] = test system: ZFL (hepatocytes) cell line; assay: cells; assay type: cell-based, zebrafish (Danio rerio); conditions: Danio rerio, Hepatocyte; remark: listed apart in the source
compound,measurement,setting,value
"CCCSc1ccc2nc(NC(=O)OC)[nH]c2c1 [Albendazole, albendazole]",IC50,"[1]; CFDA - ZF4, log10 of IC50, read-out: LogIC50 (converted)",75400 nM
same,IC50,"[1]; CFDA - ZF4, read-out: IC50",75400 nM
same,IC50,"[1]; ZF4, 48 h exposure, nominal, log10, read-out: logIC50 (log10 IC50;nom) CFDA (converted)",75900 nM
same,IC50,"[1]; ZF4, 48 h exposure, nominal, read-out: IC50;nom CFDA",75400 nM
same,AC50,[2],410 nM
same,IC50,"[3]; AB - ZFL, log10 of IC50, read-out: LogIC50 (converted)",3720 nM
same,IC50,"[3]; AB - ZFL, read-out: IC50",3720 nM
same,IC50,"[3]; ZFL, 48 h exposure, nominal, log10, read-out: logIC50 (log10 IC50;nom) AB (converted)",3720 nM
same,IC50,"[3]; ZFL, 48 h exposure, nominal, read-out: IC50;nom AB",3720 nM
same,IC50,"ZF4 and ZFL cell lines; Danio rerio, read-out: Mean log IC50nom, mean of all cytotoxicity endpoints (without LDH) in ZF4 and ZFL, 48 h, log10 (converted)",2510 nM
same,Mean log IC50nom,"ZF4 and ZFL cell lines; mean of all cytotoxicity endpoints (without LDH) in ZF4 and ZFL, log10, listed as Abz",-5.604 M
same,IC50,"[4]; MTS - ZF4, log10 of IC50, read-out: LogIC50 (converted)",10100 nM
same,IC50,"[4]; MTS - ZF4, read-out: IC50",10100 nM
same,IC50,"[4]; ZF4, 48 h exposure, nominal, log10, read-out: logIC50 (log10 IC50;nom) MTS (converted)",10000 nM
same,IC50,"[4]; ZF4, 48 h exposure, nominal, read-out: IC50;nom MTS",10100 nM
same,IC50,"[5]; BCA - ZF4, log10 of IC50, read-out: LogIC50 (converted)",555 nM
same,IC50,"[5]; BCA - ZF4, read-out: IC50",555 nM
same,IC50,"[5]; ZF4, 48 h exposure, nominal, log10, read-out: logIC50 (log10 IC50;nom) BCA (converted)",550 nM
same,IC50,"[5]; ZF4, 48 h exposure, nominal, read-out: IC50;nom BCA",555 nM
same,IC50,"[6]; NR-fluo - ZFL, log10 of IC50, read-out: LogIC50 (converted)",724 nM
same,IC50,"[6]; NR-fluo - ZFL, read-out: IC50",724 nM
same,IC50,"[6]; ZFL, 48 h exposure, nominal, log10, read-out: logIC50 (log10 IC50;nom) NRf (converted)",724 nM
same,IC50,"[6]; ZFL, 48 h exposure, nominal, read-out: IC50;nom NRf",724 nM
same,IC50,"[7]; AB - ZF4, log10 of IC50, read-out: LogIC50 (converted)",7790 nM
same,IC50,"[7]; AB - ZF4, read-out: IC50",7790 nM
same,IC50,"[7]; ZF4, 48 h exposure, nominal, log10, read-out: logIC50 (log10 IC50;nom) AB (converted)",7760 nM
same,IC50,"[7]; ZF4, 48 h exposure, nominal, read-out: IC50;nom AB",7790 nM
same,IC50,"[8]; ATP - ZFL, log10 of IC50, read-out: LogIC50 (converted)",542 nM
same,IC50,"[8]; ATP - ZFL, read-out: IC50",542 nM
same,IC50,"[8]; ZFL, 48 h exposure, nominal, log10, read-out: logIC50 (log10 IC50;nom) ATP (converted)",537 nM
same,IC50,"[8]; ZFL, 48 h exposure, nominal, read-out: IC50;nom ATP",542 nM
same,IC50,"[9]; MTS - ZFL, log10 of IC50, read-out: LogIC50 (converted)",418 nM
same,IC50,"[9]; MTS - ZFL, read-out: IC50",418 nM
same,IC50,"[9]; ZFL, 48 h exposure, nominal, log10, read-out: logIC50 (log10 IC50;nom) MTS (converted)",417 nM
same,IC50,"[9]; ZFL, 48 h exposure, nominal, read-out: IC50;nom MTS",418 nM
same,IC50,"[10]; ATP - ZF4, log10 of IC50, read-out: LogIC50 (converted)",3250 nM
same,IC50,"[10]; ATP - ZF4, read-out: IC50",3250 nM
same,IC50,"[10]; ZF4, 48 h exposure, nominal, log10, read-out: logIC50 (log10 IC50;nom) ATP (converted)",3240 nM
same,IC50,"[10]; ZF4, 48 h exposure, nominal, read-out: IC50;nom ATP",3250 nM
same,IC50,"[11]; NR-fluo - ZF4, log10 of IC50, read-out: LogIC50 (converted)",3610 nM
same,IC50,"[11]; NR-fluo - ZF4, read-out: IC50",3610 nM
same,IC50,"[11]; ZF4, 48 h exposure, nominal, log10, read-out: logIC50 (log10 IC50;nom) NRf (converted)",3630 nM
same,IC50,"[11]; ZF4, 48 h exposure, nominal, read-out: IC50;nom NRf",3610 nM
same,BCF,[12],41.2
same,Physiological charge,[12],0
same,logKoa,[12],9.35
same,logKow,[12],3.07
same,pKa (Strongest Acidic),[12],9.51
same,pKa (Strongest Basic),[12],4.27
same,w_solubility (water solubility),[12],85.2 µM
same,difference in toxicity (EC50;nom) between 48 hpf and 144 hpf,zebrafish embryos [13]; 48 hpf time point less sensitive than 144 hpf,approximately the same
same,log EC50;nom (mFET),"zebrafish embryos [13]; 48 hpf, nominal, log10, listed as Abz",-6.783 M
same,EC50,"zebrafish embryos [13]; 48 hpf, nominal, log10, read-out: log EC50;nom (mFET) (converted)",166 nM
same,EC50,"zebrafish embryos [13]; 48 hpf, nominal, read-out: EC50;nom (embryo)",0.05 µg/mL
same,EC50,zebrafish embryos [13]; read-out: EC50 48hpf,165 nM
same,EC50,zebrafish embryos [13]; read-out: EC50;nom (mFET),165 nM
same,IC50,"[14]; CFDA - ZFL, log10 of IC50, read-out: LogIC50 (converted)",221000 nM
same,IC50,"[14]; CFDA - ZFL, read-out: IC50",221000 nM
same,IC50,"[14]; ZFL, 48 h exposure, nominal, log10, read-out: logIC50 (log10 IC50;nom) CFDA (converted)",219000 nM
same,IC50,"[14]; ZFL, 48 h exposure, nominal, read-out: IC50;nom CFDA",221000 nM
same,EC50,"zebrafish embryos [15]; 144 hpf, converted",158 nM
same,logEC50 144 hpf,zebrafish embryos [15]; log10,-6.8 M
same,IC50,"[16]; BCA - ZFL, log10 of IC50, read-out: LogIC50 (converted)",30.9 nM
same,IC50,"[16]; BCA - ZFL, read-out: IC50",30.9 nM
same,IC50,"[16]; ZFL, 48 h exposure, nominal, log10, read-out: logIC50 (log10 IC50;nom) BCA (converted)",30.9 nM
same,IC50,"[16]; ZFL, 48 h exposure, nominal, read-out: IC50;nom BCA",30.9 nM
same,IC50,"[17]; NR-abs - ZF4, log10 of IC50, read-out: LogIC50 (converted)",2360 nM
same,IC50,"[17]; NR-abs - ZF4, read-out: IC50",2360 nM
same,IC50,"[17]; ZF4, 48 h exposure, nominal, log10, read-out: logIC50 (log10 IC50;nom) NRa (converted)",2340 nM
same,IC50,"[17]; ZF4, 48 h exposure, nominal, read-out: IC50;nom NRa",2360 nM
same,IC50,"[17]; ZF4 cell line, NRa endpoint, nominal, read-out: IC50;nom",0.63 µg/mL
same,IC50,"[18]; NR-abs - ZFL, log10 of IC50, read-out: LogIC50 (converted)",904 nM
same,IC50,"[18]; NR-abs - ZFL, read-out: IC50",904 nM
same,IC50,"[18]; ZFL, 48 h exposure, nominal, log10, read-out: logIC50 (log10 IC50;nom) NRa (converted)",912 nM
same,IC50,"[18]; ZFL, 48 h exposure, nominal, read-out: IC50;nom NRa",904 nM
